From patent US6057153A, “Stabilized external guide sequences” (Yale University, priority 1997, dated 2000)
Entries after “also recorded” stand apart in the source; their conditions may differ.

Legend:
Substrate RNA (SUB-156) = test: RNase P-mediated cleavage assay, single turnover conditions; format: biochemical, hepatitis B virus (HBV); details: 200 nM EGS, 20 nM substrate, saturating RNase P, 60 min
Procedure: RNase P-mediated cleavage assay--Human RNase P was purified from HeLa cells according to the published procedures (14). Substrate RNA (SUB-156, FIG. 24) was 5'-end labeled using T4 polynucleotide kinase and [γ-^32P]ATP. The labeling mixture was then heated to 85° C. for 1 min, diluted with RNase-free water, and purified by a MICROSPIN™ G-25 column (Pharmacia) according to the manufacturer's instructions. Cleavage reactions were conducted in a reaction buffer containing 50 mM Tris-HCl (pH 7.4), 25 mM KCl, 10 mM MgCl2 and 0.1 mM EDTA. EGS oligomers and ^32 p-5'-end-labeled RNA substrate were heated in the reaction buffer without MgCl2 to 85° C. for 1 min and then slowly cooled to room temperature. The cleavage reaction was initiated by adding 2 μl of 100 mM MgCl2 and 3 μl of RNase P (enzyme activity for this preparation: cleavage of 0.035 pmol of tRNA^Tyr precursor min^-1 μl^-1). The final reaction volume was 20 μl and the reaction was incubated at 37° C. for 60 min. […] For each sample, cleavage reactions were performed in duplicates and the average values were used. To ensure reproducibility, cleavage assays for each EGS were also repeated in two separate experiments. The all-RNA EGS-159 was used as the reference sample and its cleavage values were counted as 100%. Cleavage percentages of all other EGSs were normalized against EGS-159 (Rel. Cleavage %) except in FIG. 30 and FIG. 31 where absolute cleavage percentages (Abs. Cleavage %) were plotted.
For EGS-single turnover conditions, the final concentrations were 200 nM for EGS and 20(nM for the RNA substrate. For EGS-multiple turnover conditions, the final concentrations were 200 nM for the RNA substrate and 40 nM for EGS. When determination of the time-course was required, the reaction volume was increased to 40 μl. Aliquots of 5-8 μl were removed from the reaction mixture at different time points (e.g. 1, 5, 15, 30 and 60 min), quenched in formamide loading buffer, and loaded onto 15% polyacrylamide/8 M urea gels. Quantitation of the cleavage product and the remaining RNA substrate was achieved using a Molecular Dynamics PHOSPHORIMAGER™.
General considerations--To select lead nuclease-resistant oligonucleotide prototypes as external guide sequences among many possible modifications, a reliable yet rapid in vitro cleavage assay for routine screening was used. Human RNase P, a ribonucleoprotein, is composed of a 340-nt H1 RNA component and one or more proteins (for recent review, see Ref. 16). A 3-step screening strategy was devised: 1) All analogues once synthesized were tested by a fast qualitative cleavage assay under single turnover conditions with 10-fold excess of EGS over target RNA substrate for 60 min. […] This was the best cleavage condition used in this study. Any analogue with a reasonable activity (e.g. more than 5% cleavage) would not be missed, under these circumstances, due to the high detection sensitivity provided by PHOSPHORIMAGER™. 2) Promising analogues were then assayed for stability in 50% human serum.

[1] = Nuclease resistance studies in 50% human serum; format: in vitro ADME; details: 37° C., experiment of 2 h
Procedure: Nuclease resistance studies--100 μl of EGS oligonucleotides (5 μM), containing a trace of 5'-end-labeled oligomers, were incubated at 37° C. for different time periods (0-24 h) with 50% human serum (Sigma, S-7023). 20 μl aliquots were diluted to 100 μl with RNase-free water, phenol/chlorform extracted, and ethanol precipitated. The residue was resuspended in 10 μl of TE and 10 μl of 2× gel loading buffer containing 98% formamide, 10 mM1 EDTA and 0.1% bromophenol blue. The mixture was heated to 85° C. for 1 min, quickly cooled on ice and frozen at -20° C. prior to electrophoresis on 15% polyacrylamide/8 M urea gels. Gels were subsequently scanned on a Molecular Dynamics PHOSPHORIMAGER™, and the stability profile for each, oligomer was estimated from the ratio of the remaining intact materials versus all radio-labeled materials (intact oligomers plus degradation products). Stability studies of non radio-labeled EGS oligomers using capillary gel electrophoresis were also carried out according to the method of Leeds et al. (15).

[2] = system: short substrate (SEQ ID NO. 1) derived from the full-length pre-genomic HBV RNA; test: RNAse P cleavage assay, short substrate; format: biochemical; details: short substrate, EGS 200 nM, 37° C., 1 hour
Procedure: RNAse P Cleavage Assays: Cleavage reactions were carried out generally according to the procedure described by Yuan et al., Proc. Natl. Acad. Sci., USA, 89:8006-8010, (1992), which is hereby incorporated by reference. Briefly, short substrate reactions were made up to a total volume of 31μ in 50 mM Tris-HCl pH 7.4, 10 mM MgCl2, 25 mM KCl, 0.1 mM EDTA, […] at 37° C. for 1 hour. After incubation, the reaction solution was mixed with loading buffer (98% formamide, 10 mM EDTA, 0.025% bromophenol blue). The cleaved substrate was separated from the uncleaved by electrophoresis on a 15% acrylamide gel containing 7 M urea. The bands were quantified on a Molecular Dynamics PHOSPHORIMAGER™.
The bands corresponding to the precursor RNA substrate and the resulting two cleavage products were counted from the dried gel using a BETASCOPE™ gel analyzer (Betagen).
RNAse P was purified by DEAE SEPHAROSE™ chromatography and glycerol density gradient centrifugation essentially as described by Bartkiewicz et al., Genes Dev. 3:488-499 (1989), which is hereby incorporated by reference.
The percentage of precursor RNA substrate remaining in either assay was plotted as function of the EGS concentration and the catalytic efficiency expressed as kcat /Km (where kcat is the rate constant of cleavage and Km is the Michaelis constant), the second order rate constant for the reaction of free EGS and substrate. Following the methods of Heidenreich and Eckstein (J. Biol. Chem., 267:1904-1909 (1992), the efficiency of the cleavage reaction, kcat /Km), was determined using the formula
The EGS constructs described in Example 2 were assayed using the RNAse P cleavage assays described in Example 1 to determine the efficiency of the cleavage reaction. FIG. 1 depicts the model system using a short substrate which was used to evaluate the ability of modified EGS molecules in inducing RNase P-mediated target cleavage. The sequence of the short substrate (SEQ ID NO. 1) was derived from the full-length pre-genomic HBV RNA.

2.1 kb HBV RNA = test: RNAse P cleavage of large target RNA; format: biochemical; details: 250 nM EGS, 30 minutes at 37° C.
Procedure: To test cleavage with a longer target RNA molecules, different reaction conditions were used. Reactions in a total volume of 10 μl contained 40 mM Tris-HCl (pH 7.4), 10 mM MgCl2, 1 mM spermidine 10 mM dithiothreitol, 0.05 μg/μl nuclease-free bovine serum albumin, 0.01% (v/v) Triton-X100™, 0.8 Units/μl RNASIN, 0.2 mM ATP, 0.2 mM GTP, 0.2 mM UTP, 0.2 mM CTP, 0.1 μCi/μl [a^32 P] CTP, 2 mM m^7 G(5')pppG, 0.06 μg/μl yeast RNA, 25 mM KCl, 3 Units T7 RNA polymerase, 250 nM EGS, 1 μl of human RNAse P and 3 ng/μl linearized plasmid. Reactions were initiated by the addition of linearized plasmid and incubated for 30 minutes at 37° C. Reactions were terminated by the addition of 10 μl of 80% formaemide, 10 mM EDTA, 0.1% bromphenol blue. After heating for 2 minutes at 90° C., samples were electrophoresed for 2 hours at 48 watts on a 5% denaturing polyacrylamide gel. After vacuum drying for 1 hour at 60° C., the gel was analyzed by phosphoimaging.
Cleavage of Large Target RNA: Plasmid pAYW2.1, containing the sequence that encodes the 2.1 kb RNA of the AYW strain of HBV, was linearized by digestion with Not I, and then transcribed by T7 RNA polymerase in the presence of [α^32 P]CTP. Labeled transcripts were incubated for 30 minutes at 37° C. with RNase P in the presence of various EGS molecules. Reaction products were subjected to denaturing polyacrylamide gel electrophoresis, and analyzed by phosphoimaging. EGS-mediated cleavage at the targeted site of the 2.1 kb transcript produces cleavage products that are approximately 1.7 and 0.4 kb in length.

Substance	RNase P-mediated cleavage activity compared to the all-RNA control (Substrate RNA (SUB-156))	further results
EGS-406: no RNA residues, remaining riboadenosines replaced by deoxynucleotides, SEQ ID NO. 50 (AGAUGAUAGAAGGUUAGAAUCCUUCACGCCGC; guide RNA; No RNA residues, remaining riboadenosines replaced by deoxynucleotides, other modifications not given here)	Significant reduction in activity	–
EGS-364: EGS-356 with disrupted T-stem, SEQ ID NO. 34 (guide AGAUGAUACACUGUUCGAAUGGUACACGCCGCN; chemistry not given here)	–	stability in 50% human serum [1]: did not change the results
EGS-380: C56 in the T-loop substituted with rA, SEQ ID NO. 40 (guide AGAUGAUAGAAGGUUAGAAUCCUUCACGCCGC; Riboadenosine at tRNA position 56 of T-loop, rest of chemistry not given here)	effectively substituted	–
EGS-404: no RNA residues, remaining riboadenosines replaced by deoxynucleotides, SEQ ID NO. 48 (AGAUGAUAGAAGGAUAGAAUCCUUCACGCCGC; guide RNA; No RNA residues, remaining riboadenosines replaced by deoxynucleotides, other modifications not given here)	Significant reduction in activity	–
INNO-124: SEQ ID NO. 2, 2'-O-methyl arms, variable loop, T stem and first 5'-U of T loop (CGAUACGGAAGGUUCGAAUCCUUCCCAGGAC; 2'-O-methyl modifications, chemistry not fully specified)	–	efficiency of RNase P-mediated target cleavage relative to the wild-type EGS [2]: most pronounced decrease in cleavage efficiency
EGS-381: C56 in the T-loop substituted with rG, SEQ ID NO. 41 (guide AGAUGAUAGAAGGUUGGAAUCCUUCACGCCGC; Riboguanosine at tRNA position 56 of T-loop, rest of chemistry not given here)	effectively substituted	–
EGS H62: all-RNA EGS, SEQ ID NO. 3, prepared by T7 RNA polymerase transcription (guide CGAUGAAGGUUCGAAUCCUUCCCAGGAC; unmodified RNA)	–	RNase P-mediated cleavage of 2.1 kb HBV RNA (2.1 kb HBV RNA): Complete cleavage
EGS-400: no RNA residues, remaining riboadenosines replaced by deoxynucleotides, SEQ ID NO. 47 (AGAUGAUAGAAGGUUAGAAUCCUUCACGCCGC; guide RNA; No RNA residues, remaining riboadenosines replaced by deoxynucleotides, other modifications not given here)	Significant reduction in activity	–
EGS-405: no RNA residues, remaining riboadenosines replaced by deoxynucleotides, SEQ ID NO. 49 (AGAUGAUAGAAGGTUAGAAUCCUUCACGCCGC; guide RNA; No RNA residues, remaining riboadenosines replaced by deoxynucleotides, other modifications not given here)	Significant reduction in activity	–
INNO-126: SEQ ID NO. 2, 2'-O-methyl arms, variable loop, T stem and third 5'-C of T loop (CGAUACGGAAGGUUCGAAUCCUUCCCAGGAC; 2'-O-methyl modifications, chemistry not fully specified)	–	efficiency of RNase P-mediated target cleavage relative to the wild-type EGS [2]: most pronounced decrease in cleavage efficiency
INNO-149: SEQ ID NO. 3, 2'-O-methyl arms and T stem, phosphorothioate T loop, 3'-amino group (CGAUGAAGGUUCGAAUCCUUCCCAGGAC; 2'-O-methyl, phosphorothioate T loop, 3'-amino, chemistry not fully specified)	–	RNase P-mediated cleavage of 2.1 kb HBV RNA (2.1 kb HBV RNA): capable of inducing RNase P-mediated cleavage; also recorded: mostly cleaved; RNase P-mediated cleavage of 2.1 kb HBV RNA (2.1 kb HBV RNA; listed as analogue 149): more effective than analogue 155
